Data set [1] concerns the target T1, E. coli topoisomerase I (type Ia) (Escherichia coli, UniProt P06612).
T1 sequence (P06612 1-865): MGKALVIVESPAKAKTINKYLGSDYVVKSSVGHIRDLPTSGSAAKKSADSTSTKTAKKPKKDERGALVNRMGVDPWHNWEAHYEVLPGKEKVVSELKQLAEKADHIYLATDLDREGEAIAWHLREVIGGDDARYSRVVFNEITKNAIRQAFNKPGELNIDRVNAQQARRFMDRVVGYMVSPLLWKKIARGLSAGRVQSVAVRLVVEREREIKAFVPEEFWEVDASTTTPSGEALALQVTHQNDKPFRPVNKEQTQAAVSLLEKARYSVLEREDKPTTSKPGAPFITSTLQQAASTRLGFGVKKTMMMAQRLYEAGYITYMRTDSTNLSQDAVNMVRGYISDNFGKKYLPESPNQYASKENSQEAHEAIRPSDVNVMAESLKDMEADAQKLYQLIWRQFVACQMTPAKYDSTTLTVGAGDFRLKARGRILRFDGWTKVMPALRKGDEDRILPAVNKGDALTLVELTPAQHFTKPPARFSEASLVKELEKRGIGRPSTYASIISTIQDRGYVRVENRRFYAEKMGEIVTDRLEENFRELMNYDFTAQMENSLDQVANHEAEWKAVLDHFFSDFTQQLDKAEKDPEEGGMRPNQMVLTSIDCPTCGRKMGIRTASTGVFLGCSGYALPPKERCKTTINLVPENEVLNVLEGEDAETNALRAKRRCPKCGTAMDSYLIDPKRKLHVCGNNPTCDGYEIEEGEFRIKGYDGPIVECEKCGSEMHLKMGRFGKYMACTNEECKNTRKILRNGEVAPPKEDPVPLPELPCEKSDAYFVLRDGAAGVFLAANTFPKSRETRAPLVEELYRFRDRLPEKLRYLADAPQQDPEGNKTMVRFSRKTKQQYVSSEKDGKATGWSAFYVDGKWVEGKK
Put plainly: biochemical. The note with it: peptide concentrations up to 42 μM. The source says: E. coli topoisomerase I (TopA) exemplifies the type IA topoisomerase family. Type IA enzymes are mechanistically and structurally unrelated to the topoisomerase IB/tyrosine recombinase superfamily of DNA strand transferases.

Data set [2] concerns the target T2, Vaccinia topoisomerase (type Ib) (Vaccinia virus, UniProt P68698).
T2 construct: made in house; host or cells: Escherichia coli BL21 infected with bacteriophage λCE6
Put plainly: biochemical. The note with it: peptide concentrations up to 42 μM.

Data set [3] addresses T2, Vaccinia topoisomerase (type Ib). The data set is described as follows: biochemical. It counts as biochemical.
Data set [4] deals with T3, Lambda integrase (Int) (Bacteriophage lambda) (UniProt P03700).
T3 sequence: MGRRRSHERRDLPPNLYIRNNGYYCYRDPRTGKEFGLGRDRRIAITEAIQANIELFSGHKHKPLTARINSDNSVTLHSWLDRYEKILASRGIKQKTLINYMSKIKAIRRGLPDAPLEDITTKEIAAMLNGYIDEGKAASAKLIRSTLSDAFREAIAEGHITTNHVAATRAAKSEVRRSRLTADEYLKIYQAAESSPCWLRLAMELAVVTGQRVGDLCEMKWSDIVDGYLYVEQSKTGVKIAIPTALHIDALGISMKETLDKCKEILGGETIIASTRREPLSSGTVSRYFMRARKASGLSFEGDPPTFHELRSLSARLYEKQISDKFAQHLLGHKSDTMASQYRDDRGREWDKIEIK
The data set is described as follows: cleavage_in_vitro.

With WCHYNY, the “effect on DNA relaxation” value in data set [1] and in data set [2] was “no effect” in each case. Further, the “effect on transesterification (DNA cleavage)” value in data set [3] was “did not inhibit transesterification”.
In data set [4] (excision with IHF and Xis, no peptide), attL + attR excision substrates gave an activity of over 70%.
For the substance “excision Holliday junction (attL x attR)”, in data set [4] (Int alone HJ resolution, binds weakly alone, 42.4% with IHF, 14.4% with Xis, 58.2% with IHF+Xis, 95.3% with IHF+Xis no spermidine), the activity was determined as 7.2%.
